Reference: article PMC4053376, “Characterization of the Xiamenmycin Biosynthesis Gene Cluster in Streptomyces xiamenensis 318” (PLoS ONE, 2014)

Assays:
XimB = target: T1, XimB (Streptomyces xiamenensis, UniProt U5PZQ3); test: membrane fraction, product […] by UPLC-Q-TOF-MS; type: biochemical; conditions: 0.3 mM GPP, 0.5 mM 4HB, 5 mM MgSO4, 50 mM Tris-HCl pH 7.5, 30 °C
T1 construct: full-length 313 aa; N-terminal His tag, pET28a, E. coli BL21(DE3) membrane fraction; twelve predicted transmembrane helices
T1 sequence (U5PZQ3 1-313): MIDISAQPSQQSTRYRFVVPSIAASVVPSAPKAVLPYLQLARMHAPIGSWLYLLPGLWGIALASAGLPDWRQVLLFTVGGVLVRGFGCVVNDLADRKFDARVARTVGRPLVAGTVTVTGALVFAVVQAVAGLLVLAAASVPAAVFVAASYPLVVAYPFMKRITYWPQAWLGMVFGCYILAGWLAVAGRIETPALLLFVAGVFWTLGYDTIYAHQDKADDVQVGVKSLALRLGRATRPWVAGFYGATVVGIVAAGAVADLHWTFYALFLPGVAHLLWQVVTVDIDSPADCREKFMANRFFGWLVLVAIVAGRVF

XimC = target: T2, XimC (Streptomyces xiamenensis, UniProt U5Q2Q4); test: product 4HB by GC-MS; type: biochemical; conditions: 50 mM Tris-HCl pH 7.5, 30 °C, 30 min
T2 construct: full-length 196 aa; N-terminal His6 tag, pET28a, E. coli BL21(DE3), Ni-NTA purified
T2 sequence (U5Q2Q4 entry or part of it): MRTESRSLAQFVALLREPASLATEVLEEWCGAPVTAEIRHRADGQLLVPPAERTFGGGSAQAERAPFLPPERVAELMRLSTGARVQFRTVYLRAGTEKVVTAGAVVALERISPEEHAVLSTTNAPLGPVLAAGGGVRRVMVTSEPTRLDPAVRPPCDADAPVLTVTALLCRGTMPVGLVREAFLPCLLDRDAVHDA

Row | SMILES | membrane fraction, product 2 by UPLC-Q-TOF-MS (XimB) | product 4HB by GC-MS (XimC)
1 | O=C(O)c1ccc(O)cc1 [4-hydroxybenzoic acid] | membrane fraction containing XimB was incubated with 4HB and GPP | 
2 | C=C(O[C@@H]1C=C(C(=O)O)C=C[C@H]1O)C(=O)O [chorismate] |  | incubated with chorismate, the formation of 4HB was observed and confirmed by GC-MS
3 | CC(C)=CCC/C(C)=C/COP(=O)(O)OP(=O)(O)O [geranyl diphosphate] | membrane fraction containing XimB was incubated with 4HB and GPP | 
